Source: US20020028929A1, “Estradiol derivative and immunoassay using the same” (priority 2000, published 2002)

Legend:
[1] = system: antiserum RY725 (Rabbit antiserum obtained in Example 1-(1)); test: ELISA system for 17β-estradiol with biotinylated estradiol derivative 2 as labeled compound (standard curve, cross-reactivity test); assay type: binding; settings: relative to 17β-estradiol (calculated as 100%), labeled compound biotinylated estradiol derivative 2
Protocol: (1) An ELISA system for 17β-estradiol using the derivative of the invention as a labeled compound was prepared in the following manner.
(a) 100 μL of a standard solution or a sample is pipetted into each well of the 96-well plate, followed by addition of 50 μL of the labeled compound (0.2 ng/mL) comprising the biotinylated estradiol derivative of the invention and 50 μL of the antiserum (×32000);
(b) the reaction is allowed to proceed at 4° C. overnight (for 18-20 hours);
(§1) (c) all the wells are washed with the wash solution 4 times;
(d) the reaction is allowed to proceed using a microplate shaker at room temperature for 2 hours;
(e) all the wells are washed with the wash solution 4 times;
(f) […] of the substrate is added;
(g) the reaction is allowed to proceed at room temperature for 20 minutes;
(h) 100 μL of the enzyme reaction stop solution is pipetted into each well;
(i) absorbance at 450 nm is measured with a microplate autoreader.
The specifity of the 17β-estradiol ELISA system was assessed in the following manner.

[2] = system: antiserum RY469 (Rabbit antiserum prepared in Example 1-(2)); test: ELISA system for estrone with biotinylated estradiol derivative 1 as labeled compound (standard curve, cross-reactivity test); assay type: binding; settings: relative to estrone (calculated as 100%), labeled compound biotinylated estradiol derivative 1
Protocol: (2) An ELISA system for estrone using the derivative of the invention as a labeled compound was designed in the following manner.
Biotinylated estradiol derivative 1 of the invention
RY469 (Rabbit antiserum prepared in Example 1-(2)
(a) 100 μL of a standard solution or a sample is pipetted into each well of the 96-well plate, followed by addition of 50 μL of the labeled compound (0.25 ng/mL) comprising the biotinylated estradiol derivative of the invention and 50 μL of the antiserum (×32000);
(b) the reaction is allowed to proceed using a microplate shaker at room temperature for 5 hours;
as §1
(d) 100 μL of the HRP-labeled reagent (×5000) is added;
(e) the reaction is allowed to proceed using a microplate shaker at room temperature for 1 hour;
(f) all the wells are washed with the wash solution 4 times;
(g) 100 μL of the substrate is added;
(h) the reaction is allowed to proceed at 20° C. for 20 minutes;
(i) 100 μL of the enzyme reaction stop solution is pipetted into each well;
(j) absorbance at 450 nm is measured with a microplate autoreader.
The specifity of the estrone ELISA system was assessed in the following manner.
ELISA was repeated in a similar manner as in Example 3-(2) except that the estrogens shown in Table 2 were used in place of the standard estrone (Sigma Co.). The standard curve of each of the estrogens was obtained (see FIG. 6).

[3] = general statement on prior art; cited from earlier work

| Compound | Cross-reactivity (%) [1] | Cross-reactivity (%) [2] | solubility in water [3] |
| --- | --- | --- | --- |
| C[C@]12CCC3c4ccc(OS(=O)(=O)O)cc4CCC3C1CC[C@@H]2OS(=O)(=O)O (stereo partly drawn) [β-Estradiol 3,7-disulfate] | 0.00% | – | – |
| CC12CCC3c4ccc(OC5OC(C(=O)O)C(O)C(O)C5O)cc4CCC3C1CCC2OS(=O)(=O)O (stereo not drawn) [β-Estradiol 3-glucronide 17-sulfate] | 0.02% | – | – |
| CC[C@H](c1ccc(O)cc1)[C@@H](CC)c1ccc(O)cc1 [Hexestrol] | 0.00% | – | – |
| C[C@]12CC[C@@H]3c4ccc(O[C@@H]5O[C@H](C(=O)O)[C@@H](O)[C@H](O)[C@H]5O)cc4CC[C@H]3[C@@H]1CC[C@@H]2O [β-Estradiol 3-(β-D-glucronide)] | 37.44% | – | – |
| C[C@]12CC[C@@H]3c4ccc(O)cc4CC[C@H]3[C@@H]1CC[C@@H]2O [17β-Estradiol] | 100.00% | 33.33% | – |
| C#C[C@]1(O)CC[C@H]2[C@@H]3CCc4cc(O)ccc4[C@H]3CC[C@@]21C [Ethynylestradiol] | 0.03% | – | – |
| Nonylphenol | – | <0.001% | – |
| C[C@]12CC[C@@H]3c4ccc(OS(=O)(=O)O)cc4CC[C@H]3[C@@H]1CC[C@@H]2O[C@@H]1O[C@H](C(=O)O)[C@@H](O)[C@H](O)[C@H]1O [β-Estradiol 3-sulfate 17-glucronide] | 0.00% | – | – |
| Catechin | – | <0.001% | – |
| O=C(O)CCCC[C@@H]1SC[C@@H]2NC(=O)N[C@@H]21 [biotin] | – | – | minimally soluble in water |
| C[C@]12CCC(=O)C=C1CC[C@@H]1[C@@H]2CC[C@]2(C)C(=O)CC[C@@H]12 [(+)-4-Androsteron-3,17-dione] | 0.02% | – | – |
| C[C@]12CC[C@@H]3c4ccc(O)cc4CC[C@H]3[C@@H]1CC[C@@H]2O[C@@H]1O[C@H](C(=O)O)[C@@H](O)[C@H](O)[C@H]1O [β-Estradiol 17-(β-D-glucronide)] | 0.00% | – | – |
| O=C(O[C@@H]1Cc2c(O)cc(O)cc2O[C@@H]1c1ccc(O)c(O)c1)c1cc(O)c(O)c(O)c1 [Epicatechin gallate] | – | <0.001% | – |
| C#C[C@]1(O)CC[C@H]2[C@@H]3CCc4cc(OC)ccc4[C@H]3CC[C@@]21C [Mestranol] | 0.14% | – | – |
| C[C@]12CC[C@@H]3c4ccc(O)cc4CC[C@H]3[C@@H]1C[C@@H](O)[C@@H]2O [Estriol] | 0.16% | 0.15% | – |
| C[C@]12CC[C@H]3[C@@H](CCC4=CC(=O)CC[C@@]43C)[C@@H]1CC[C@@H]2O [Testosterone] | 0.28% | – | – |
| C[C@]12CCC(=O)C=C1CC[C@@H]1[C@@H]2[C@@H](O)C[C@]2(C=O)[C@@H](C(=O)CO)CC[C@@H]12 [d-ALDOSTERONE] | 0.00% | – | – |
| CC(=O)[C@H]1CC[C@H]2[C@@H]3CCC4=CC(=O)CC[C@]4(C)[C@H]3CC[C@]12C [Progesteron] | 0.01% | – | – |
| CC(C)(c1ccc(O)cc1)c1ccc(O)cc1 [Bisphenol A] | – | <0.001% | – |
| COc1cc2c(cc1O)CC[C@@H]1[C@@H]2CC[C@]2(C)[C@@H](O)CC[C@@H]12 [2-Methoxyestradiol] | 1.79% | – | – |
| β-Estradiol 3-sulfate | 11.05% | – | – |
